Source: patent US8158792B2, “Spiropiperidines for use as tryptase inhibitors” (Janssen Pharmaceutica N.V., priority 2007, dated 2012)

molecular target: human lung tryptase; test: β-Tryptase In-Vitro Enzyme Assay; assay type: biochemical; conditions: human lung tryptase 1 nM, substrate H-D-HHT-Ala-Arg-pNa 500 μM, pH 7.4, room temperature
Description: The β-tryptase assay was conducted with human lung tryptase (Cortex Biochem #CP3033) in an aqueous buffer (10 mM Tris, 10 mM Hepes, 150 mM NaCl, 0.1% PEG 8000, pH 7.4) using the chromogenic substrate H-D-HHT-Ala-Arg-pNa. […] Percent inhibition was calculated by comparing the initial reaction velocity of samples without inhibitor to those with inhibitor. The initial reaction velocities were analyzed using Microsoft Excel.

SMILES | IC50 [nM]
NCc1ccc2c(c1)C1(CCN(C(=O)Cc3ccc(-c4ccccc4)cc3)CC1)CO2 [Cpd 92, 1-(4-phenyl-benzyl)carbonyl-5′-aminomethyl-spiro[piperidine-4,3′-(2H)-benzo[b]furan]] | 490
NCc1ccc2c(c1)C1(CCN(C(=O)Cc3ccc(F)c(F)c3)CC1)CO2 [Cpd 82, 1-(3,4-difluoro-benzyl)carbonyl-5′-aminomethyl-spiro[piperidine-4,3′-(2H)-benzo[b]furan]] | 1300
Cc1cccc(/C=C/C(=O)N2CCC3(CC2)COc2ccc(CN)cc23)c1 [Cpd 179, (E)-1-(3-methyl-phenylethenyl)carbonyl-5′-aminomethyl-spiro[piperidine-4,3′-(2H)-benzo[b]furan]] | 260
NCc1ccc2c(c1)C1(CCN(C(=O)c3ccc(C(F)(F)F)o3)CC1)CO2 [Cpd 22, 1-(5-trifluoromethyl-furan-2-yl)carbonyl-5′-aminomethyl-spiro[piperidine-4,3′-(2H)-benzo[b]furan]] | 2100
Cc1ccc(/C=C/C(=O)N2CCC3(CC2)COc2ccc(CN)cc23)cc1 [Cpd 180, (E)-1-(4-methyl-phenylethenyl)carbonyl-5′-aminomethyl-spiro[piperidine-4,3′-(2H)-benzo[b]furan]] | 780
NCc1ccc2c(c1)C1(CCN(C(=O)c3snnc3-c3ccccc3)CC1)CO2 [Cpd 217, 1-(4-phenyl-[1,2,3]thiadiazol-5-yl)carbonyl-5′-aminomethyl-spiro[piperidine-4,3′-(2H)-benzo[b]furan]] | 650
NCc1ccc2c(c1)C1(CCN(C(=O)Cc3ccc(Br)cc3)CC1)CO2 [Cpd 93, 1-(4-bromo-benzyl)carbonyl-5′-aminomethyl-spiro[piperidine-4,3′-(2H)-benzo[b]furan]] | 350
NCc1ccc2c(c1)C1(CCN(C(=O)c3ccc(C#Cc4ccccc4Cl)o3)CC1)CO2 [Cpd 146, 1-[5-(2-chloro-phenylethynyl)-furan-2-yl]carbonyl-5′-aminomethyl-spiro[piperidine-4,3′-(2H)-benzo[b]furan]] | 5.2
NCc1ccc2c(c1)C1(CCN(C(=O)c3ccc(NC(=O)Cn4cnc5ccccc54)cc3)CC1)CO2 [Cpd 9, 1-(4-benzoimidazol-1-ylmethylcarbonylamino-phenyl)carbonyl-5′-aminomethyl-spiro[piperidine-4,3′-(2H)-benzo[b]furan]] | 3300
NCc1ccc2c(c1)C1(CCN(C(=O)c3ccc(Cl)cc3)CC1)CO2 [Cpd 44, 1-(4-chloro-phenyl)carbonyl-5′-aminomethyl-spiro[piperidine-4,3′-(2H)-benzo[b]furan]] | 230
NCc1ccc2c(c1)C1(CCN(C(=O)c3ccc4cc(Br)ccc4c3)CC1)CO2 [Cpd 126, 1-(6-bromo-naphthalen-2-yl)carbonyl-5′-aminomethyl-spiro[piperidine-4,3′-(2H)-benzo[b]furan]] | 150
Cc1cc(C(=O)N2CCC3(CC2)COc2ccc(CN)cc23)ccc1Br [Cpd 30, 1-(3-methyl-4-bromo-phenyl)carbonyl-5′-aminomethyl-spiro[piperidine-4,3′-(2H)-benzo[b]furan]] | 140
COC(=O)c1ccc(C(=O)N2CCC3(CC2)COc2ccc(CN)cc23)cc1 [Cpd 58, 1-(4-methoxycarbonyl-phenyl)carbonyl-5′-aminomethyl-spiro[piperidine-4,3′-(2H)-benzo[b]furan]] | 710
NCc1ccc2c(c1)C1(CCN(C(=O)c3cncc(-c4cccs4)c3)CC1)CO2 [Cpd 143, 1-(5-thien-2-yl-pyridin-3-yl)carbonyl-5′-aminomethyl-spiro[piperidine-4,3′-(2H)-benzo[b]furan]] | 56
NCc1ccc2c(c1)C1(CCN(C(=O)c3cccc(Cl)c3)CC1)CO2 [Cpd 39, 1-(3-chloro-phenyl)carbonyl-5′-aminomethyl-spiro[piperidine-4,3′-(2H)-benzo[b]furan]] | 3700
CSc1sc(C(=O)N2CCC3(CC2)COc2ccc(CN)cc23)c(Cl)c1S(=O)(=O)C(C)C [Cpd 157, 1-(3-chloro-4-isopropylsulfonyl-5-methylthio-thien-2-yl)carbonyl-5′-aminomethyl-spiro[piperidine-4,3′-(2H)-benzo[b]furan]] | 17
NCc1ccc2c(c1)C1(CCN(C(=O)c3ccc(-c4cc(Cl)ccc4Cl)o3)CC1)CO2 [Cpd 137, 1-[5-(2,5-dichloro-phenyl)-furan-2-yl]carbonyl-5′-aminomethyl-spiro[piperidine-4,3′-(2H)-benzo[b]furan]] | 53
NCc1ccc2c(c1)C1(CCN(C(=O)/C=C/c3c(F)cccc3F)CC1)CO2 [Cpd 195, (E)-1-(2,6-difluoro-phenylethenyl)carbonyl-5′-aminomethyl-spiro[piperidine-4,3′-(2H)-benzo[b]furan]] | 120
NCc1ccc2c(c1)C1(CCN(C(=O)c3ccc(F)c(C(F)(F)F)c3)CC1)CO2 [Cpd 74, 1-(3-trifluoromethyl-4-fluoro-phenyl)carbonyl-5′-aminomethyl-spiro[piperidine-4,3′-(2H)-benzo[b]furan]] | 160
COc1ccc(CC(=O)N2CCC3(CC2)COc2ccc(CN)cc23)cc1OC [Cpd 105, 1-(3,4-dimethoxy-benzyl)carbonyl-5′-aminomethyl-spiro[piperidine-4,3′-(2H)-benzo[b]furan]] | 770
NCc1ccc2c(c1)C1(CCN(C(=O)c3ccc(C(=O)c4ccccc4)cc3)CC1)CO2 [Cpd 6, 1-(4-benzoyl-phenyl)carbonyl-5′-aminomethyl-spiro[piperidine-4,3′-(2H)-benzo[b]furan]] | 5800
COc1cccc(C(=O)N2CCC3(CC2)COc2ccc(CN)cc23)c1 [Cpd 53, 1-(3-methoxy-phenyl)carbonyl-5′-aminomethyl-spiro[piperidine-4,3′-(2H)-benzo[b]furan]] | 870
NCc1ccc2c(c1)C1(CCN(C(=O)c3cccc(NC(=O)Cc4cccs4)c3)CC1)CO2 [Cpd 19, 1-(3-thien-2-ylmethylcarbonylamino-phenyl)carbonyl-5′-aminomethyl-spiro[piperidine-4,3′-(2H)-benzo[b]furan]] | 560
NCc1ccc2c(c1)C1(CCN(C(=O)c3ccc(Sc4ccccc4)o3)CC1)CO2 [Cpd 23, 1-[(5-phenylthio)-furan-2-yl]carbonyl-5′-aminomethyl-spiro[piperidine-4,3′-(2H)-benzo[b]furan]] | 90
NCc1ccc2c(c1)C1(CCN(C(=O)c3cccc(C(=O)c4ccccc4)c3)CC1)CO2 [Cpd 4, 1-(3-benzoyl-phenyl)carbonyl-5′-aminomethyl-spiro[piperidine-4,3′-(2H)-benzo[b]furan]] | 750
NCc1ccc2c(c1)C1(CCN(C(=O)c3ccc4c(c3)OCO4)CC1)CO2 [Cpd 68, 1-benzodioxol-5-ylcarbonyl-5′-aminomethyl-spiro[piperidine-4,3′-(2H)-benzo[b]furan]] | 190

Further lines, results first:

IC50 [nM] | SMILES
28 | CCOC(=O)CC(NNC)C(=O)N1CC2(CCN(C(=O)c3ccc(C#Cc4ccccc4)o3)CC2)c2cc(CN)ccc21 (stereo not shown) [Cpd 332, 1-(5-phenylethynyl-furan-2-yl)carbonyl-1′-[4-ethoxy-2-(methylamino)amino-1,4-dioxo-butyl]-5′-aminomethyl-spiro[piperidine-4,3′-(2H)-indole]]
4500 | NCc1ccc2c(c1)C1(CCN(C(=O)c3ccc(Cl)c(Cl)c3)C(=O)C1)CO2 (stereo not shown) [Cpd 262, 1-(3,4-dichlorophenyl)carbonyl-2-oxo-5′-aminomethyl-spiro[piperidine-4,3′-(2H)-benzo[b]furan]]
20 | NCc1ccc2c(c1)C1(CCN(C(=O)c3ccc(C#Cc4ccccc4)o3)CC1)CN2C(=O)CS(=O)(=O)O [Cpd 335, 1-(5-phenylethynyl-furan-2-yl)carbonyl-1′-(hydroxysulfonylmethyl)carbonyl-5′-aminomethyl-spiro[piperidine-4,3′-(2H)-indole]]
4300 | NCc1ccc2c(c1)C1(CCN(C(=O)C3CC(=O)c4ccccc43)CC1)CO2 (stereo not shown) [Cpd 287, 1-(3-oxo-indan-1-yl)carbonyl-5′-aminomethyl-spiro[piperidine-4,3′-(2H)-benzo[b]furan]]
25 | CSc1sc(C(=O)N2CCC3(CC2)CN(S(=O)(=O)O)c2ccc(CN)cc23)c2ccccc12 [Cpd 350, 1-(3-methylthio-benzo[c]thien-1-yl)carbonyl-1′-hydroxysulfonyl-5′-aminomethyl-spiro[piperidine-4,3′-(2H)-indole]]
71 | N=C(NO)c1ccc2c(c1)C1(CCN(C(=O)c3ccc(C#Cc4ccccc4)o3)CC1)CO2 [Cpd 306, 1-(5-phenylethynyl-furan-2-yl)carbonyl-5′-[hydroxyamino(imino)methyl]-spiro[piperidine-4,3′-(2H)-benzo[b]furan]]
9600 | C[N+](C)(C)Cc1ccc2c(c1)C1(CCN(C(=O)c3ccc(C#Cc4ccccc4)o3)CC1)CO2 [Cpd 297, 1-(5-phenylethynyl-furan-2-yl)carbonyl-spiro[piperidine-4,3′-(2H)-benzo[b]furan]-5′-[methyl-(trimethyl)ammonium]]
290 | NCc1ccc2c(c1)C1(CCN(C(=O)CC3c4ccccc4-c4ccccc43)CC1)CO2 [Cpd 355, 1-(9H-fluoren-9-ylmethyl)carbonyl-5′-aminomethyl-spiro[piperidine-4,3′-(2H)-benzo[b]furan]]
2500 | NCc1ccc2c(c1)C1(CCN(C(=O)/C=C/c3ccncc3)CC1)CO2 [Cpd 244, (E)-1-(pyridin-4-ylethenyl)carbonyl-5′-aminomethyl-spiro[piperidine-4,3′-(2H)-benzo[b]furan]]
160 | COC(=O)CCN1CC2(CCN(C(=O)c3ccc(C#Cc4ccccc4)o3)CC2)c2cc(CN)ccc21 [Cpd 321, 1-(5-phenylethynyl-furan-2-yl)carbonyl-1′-(2-methoxycarbonyl-ethyl)-5′-aminomethyl-spiro[piperidine-4,3′-(2H)-indole]]
1500 | NCc1ccc2c(c1)C1(CCN(C(=O)/C=C/c3ccc(OCc4ccccc4)cc3)CC1)CO2 [Cpd 300, (E)-1-(4-benzyloxy-phenylethenyl)carbonyl-5′-aminomethyl-spiro[piperidine-4,3′-(2H)-benzo[b]furan]]
